Source: patent US11339130B1 (Blade Therapeutics, Inc., priority 2016, dated 2022)
Where two headings read alike, the source gives them in different places.

Legend:
Human Calpain 2/NS1 = target: T1, Human Calpain 2/NS1 (Homo sapiens, UniProt P17655); assay: Calpain inhibition continuous fluorescence (FRET) assay, Human Calpain 2/NS1; type: biochemical; settings: read-out: Human Calpain 2/NS1 IC50
T1 sequence (P17655 1-700): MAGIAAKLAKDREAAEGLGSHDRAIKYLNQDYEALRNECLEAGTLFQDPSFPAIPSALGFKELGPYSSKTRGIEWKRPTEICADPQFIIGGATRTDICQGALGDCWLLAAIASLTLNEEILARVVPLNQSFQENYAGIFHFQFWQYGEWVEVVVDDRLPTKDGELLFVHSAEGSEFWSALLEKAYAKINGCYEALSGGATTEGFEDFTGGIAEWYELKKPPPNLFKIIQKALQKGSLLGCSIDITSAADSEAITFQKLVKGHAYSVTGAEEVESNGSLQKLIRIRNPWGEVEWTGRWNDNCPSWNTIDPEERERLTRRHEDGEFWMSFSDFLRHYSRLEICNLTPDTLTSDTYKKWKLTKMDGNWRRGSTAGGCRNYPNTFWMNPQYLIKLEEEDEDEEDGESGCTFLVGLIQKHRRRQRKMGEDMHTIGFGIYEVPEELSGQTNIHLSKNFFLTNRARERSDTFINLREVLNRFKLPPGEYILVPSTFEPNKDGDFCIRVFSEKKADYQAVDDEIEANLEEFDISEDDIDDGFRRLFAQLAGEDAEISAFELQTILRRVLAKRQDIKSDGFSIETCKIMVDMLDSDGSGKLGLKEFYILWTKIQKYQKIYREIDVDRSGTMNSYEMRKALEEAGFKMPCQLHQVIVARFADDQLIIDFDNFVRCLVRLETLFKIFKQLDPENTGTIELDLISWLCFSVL
T1 sequence (P04632 1-268 partner): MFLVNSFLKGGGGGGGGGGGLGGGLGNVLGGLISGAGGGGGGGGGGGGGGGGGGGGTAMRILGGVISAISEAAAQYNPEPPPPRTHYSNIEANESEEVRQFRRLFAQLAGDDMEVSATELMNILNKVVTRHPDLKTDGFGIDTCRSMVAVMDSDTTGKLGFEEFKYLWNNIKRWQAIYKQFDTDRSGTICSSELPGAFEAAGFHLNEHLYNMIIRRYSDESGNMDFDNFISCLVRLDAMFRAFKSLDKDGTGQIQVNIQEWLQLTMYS
How it was run: (§1)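 Buffer 50 mM Tris pH 7.5/100 mM NaCl/1 mM DTT; enzyme + cpd preinc 25C; start w/ FRET substrate + CaCl2; kinetic 490/520 nm, 10 min; slopes 1-5 min; 4-PL IC50.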

Human Calpain 9/NS1 = target: T2, Human Calpain 9/NS1 (Homo sapiens, UniProt O14815); assay: Calpain inhibition continuous fluorescence (FRET) assay, Human Calpain 9/NS1; type: biochemical; settings: read-out: Human Calpain 9/NS1 IC50
T2 sequence (O14815 1-690): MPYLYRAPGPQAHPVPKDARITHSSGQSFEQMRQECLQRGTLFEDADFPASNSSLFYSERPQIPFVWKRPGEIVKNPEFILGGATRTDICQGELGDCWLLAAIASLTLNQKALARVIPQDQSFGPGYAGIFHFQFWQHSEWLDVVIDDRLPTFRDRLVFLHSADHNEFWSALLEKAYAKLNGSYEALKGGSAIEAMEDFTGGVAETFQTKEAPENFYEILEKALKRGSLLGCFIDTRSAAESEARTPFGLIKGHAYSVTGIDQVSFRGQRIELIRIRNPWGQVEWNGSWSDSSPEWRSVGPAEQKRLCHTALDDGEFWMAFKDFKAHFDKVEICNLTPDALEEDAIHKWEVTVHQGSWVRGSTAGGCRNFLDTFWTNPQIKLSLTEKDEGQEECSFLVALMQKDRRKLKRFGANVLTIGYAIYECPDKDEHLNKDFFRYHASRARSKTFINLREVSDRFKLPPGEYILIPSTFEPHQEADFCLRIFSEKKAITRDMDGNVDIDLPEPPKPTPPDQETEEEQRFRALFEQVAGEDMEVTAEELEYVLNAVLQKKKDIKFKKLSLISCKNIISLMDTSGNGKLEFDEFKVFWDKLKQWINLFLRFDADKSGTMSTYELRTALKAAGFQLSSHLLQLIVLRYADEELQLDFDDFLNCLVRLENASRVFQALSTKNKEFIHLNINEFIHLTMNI
T2 sequence (P04632 1-268 partner): T1 sequence (P04632 1-268 partner)
How it was run: as §1

[1] = tested on: Calpain activity in SH-SY5Y cells; assay: SH-SY5Y + AMC fluorescence assay (Suc-LLVY-AMC substrate); type: cell-based; settings: read-out: SH-SY5Y + AMC IC50
[2] = tested on: Calpain activity in SH-SY5Y cells (SBDP-150); assay: SH-SY5Y Spectrin western blot assay (SBDP-150 breakdown product, A23187-induced); type: cell-based; settings: Homo sapiens, SH-SY5Y cells, read-out: SH-SY5Y Spectrin IC50
Human Calpain 1/NS1 = target: T3, Human Calpain 1/NS1 (Homo sapiens, UniProt P07384); assay: Calpain inhibition continuous fluorescence (FRET) assay, Human Calpain 1/NS1; type: biochemical; settings: read-out: Human Calpain 1/NS1 IC50
T3 sequence (P07384 1-714): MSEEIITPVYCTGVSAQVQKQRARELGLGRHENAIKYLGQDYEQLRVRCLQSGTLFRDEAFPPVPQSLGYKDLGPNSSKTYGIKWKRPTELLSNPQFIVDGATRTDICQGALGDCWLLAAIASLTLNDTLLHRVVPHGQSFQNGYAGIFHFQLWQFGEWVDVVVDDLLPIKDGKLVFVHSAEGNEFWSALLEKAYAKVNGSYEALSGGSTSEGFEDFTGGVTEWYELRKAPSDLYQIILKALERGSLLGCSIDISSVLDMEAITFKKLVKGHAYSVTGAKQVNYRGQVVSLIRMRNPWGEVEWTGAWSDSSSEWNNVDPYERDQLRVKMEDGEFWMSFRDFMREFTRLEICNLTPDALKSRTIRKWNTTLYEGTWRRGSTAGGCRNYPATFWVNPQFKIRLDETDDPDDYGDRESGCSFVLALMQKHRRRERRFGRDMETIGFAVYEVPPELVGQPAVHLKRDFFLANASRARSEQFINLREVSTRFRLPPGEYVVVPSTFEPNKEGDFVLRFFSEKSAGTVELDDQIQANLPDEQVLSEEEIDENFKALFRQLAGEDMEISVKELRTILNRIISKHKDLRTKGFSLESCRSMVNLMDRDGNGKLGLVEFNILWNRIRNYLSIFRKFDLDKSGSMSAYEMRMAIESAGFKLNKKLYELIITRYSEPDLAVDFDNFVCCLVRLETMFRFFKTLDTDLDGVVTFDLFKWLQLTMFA
T3 sequence (P04632 1-268 partner): T1 sequence (P04632 1-268 partner)
How it was run: as §1

[3] = Column D, A23187-induced SBDP-150
[4] = A23187-induced SBDP-150, western blot

Row | SMILES | IC50 (Human Calpain 2/NS1; Column B) | IC50 (Human Calpain 9/NS1; Column C) | IC50 ([1]; Column E) | IC50 [2, 3] | IC50 (Human Calpain 1/NS1; Column A) | IC50 (Human Calpain 2/NS1) | IC50 (Human Calpain 9/NS1) | IC50 [1] | IC50 [2, 4] | IC50 (Human Calpain 1/NS1)
1 | Cc1cc(C(=O)N[C@@H](Cc2ccccc2)C(=O)C(N)=O)n(-c2ccc(-c3ccc(F)cc3)cc2)n1 [Compound 126, (S)—N-(4-amino-3,4-dioxo-1-phenylbutan-2-yl)-1-(4′-fluoro-[1,1′-biphenyl]-4-yl)-3-methyl-1H-pyrazole-5-carboxamide] | < 3 µM | < 3 µM | > 25 µM | < 10 µM | < 3 µM | – | – | – | – | –
2 | Cc1cc(C(=O)N[C@@H](Cc2ccccc2)C(=O)C(N)=O)n(-c2cccc(COCc3ccccc3)c2)n1 [Compound 230, (S)—N-(4-amino-3,4-dioxo-1-phenylbutan-2-yl)-1-(3-((benzyloxy)methyl)phenyl)-3-methyl-1H-pyrazole-5-carboxamide] | < 3 µM | < 3 µM | < 10 µM | < 10 µM | < 3 µM | – | – | – | – | –
3 | Cc1cc(C(=O)N[C@H](C=O)Cc2ccccc2)n(-c2ccncn2)n1 [Compound 279, (S)-3-methyl-N-(1-oxo-3-phenylpropan-2-yl)-1-(pyrimidin-4-yl)-1H-pyrazole-5-carboxamide] | < 3 µM | 3 to 10 µM | < 10 µM | 10 to 25 µM | < 3 µM | – | – | – | – | –
4 | O=C[C@H](Cc1ccccc1)NC(=O)c1cn(C2CC2)nc1-c1ccccc1 [Compound 330, (S)-1-cyclopropyl-N-(1-oxo-3-phenylpropan-2-yl)-3-phenyl-1H-pyrazole-4-carboxamide] | – | – | – | – | – | < 3 µM | < 3 µM | 10 to 25 µM | 10 to 25 µM | < 3 µM
5 | NC(=O)C(=O)C(Cc1ccccc1)NC(=O)c1nsnc1-c1cccc2c1OCO2 (centres unmarked) [Compound 367, N-(4-amino-3,4-dioxo-1-phenylbutan-2-yl)-4-(benzo[d][1,3]dioxol-4-yl)-1,2,5-thiadiazole-3-carboxamide] | – | – | – | – | – | < 3 µM | < 3 µM | < 10 µM | < 10 µM | < 3 µM
6 | Cc1cc(C(=O)N[C@@H](Cc2ccccc2)C(=O)C(N)=O)n(-c2nc3ccccc3n2C)n1 [Compound 294, (S)—N-(4-amino-3,4-dioxo-1-phenylbutan-2-yl)-3-methyl-1-(1-methyl-1H-benzo[d]imidazol-2-yl)-1H-pyrazole-5-carboxamide] | 3 to 10 µM | < 3 µM | > 25 µM | 10 to 25 µM | 3 to 10 µM | – | – | – | – | –
7 | Cn1cc(C(=O)N[C@H](C=O)Cc2ccccc2)c(-c2cccc(F)c2)n1 [Compound 328, (S)-3-(3-fluorophenyl)-1-methyl-N-(1-oxo-3-phenylpropan-2-yl)-1H-pyrazole-4-carboxamide] | – | – | – | – | – | < 3 µM | < 3 µM | > 25 µM | 10 to 25 µM | < 3 µM
8 | Cn1cc(C(=O)NC(Cc2cc(F)cc(F)c2)C(=O)C(N)=O)c(-c2ccccc2F)n1 (centres unmarked) [Compound 580, N-(4-amino-1-(3,5-difluorophenyl)-3,4-dioxobutan-2-yl)-3-(2-fluorophenyl)-1-methyl-1H-pyrazole-4-carboxamide] | – | – | – | – | – | < 3 µM | < 3 µM | < 10 µM | 10 to 25 µM | < 3 µM
9 | Cc1ccccc1-c1nn(C)cc1C(=O)N[C@@H](Cc1ccccc1)C(=O)C(N)=O [Compound 171, (S)—N-(4-amino-3,4-dioxo-1-phenylbutan-2-yl)-1-methyl-3-(o-tolyl)-1H-pyrazole-4-carboxamide] | 3 to 10 µM | < 3 µM | 10 to 25 µM | > 25 µM | < 3 µM | – | – | – | – | –
10 | NC(=O)C(=O)[C@H](Cc1ccccc1)NC(=O)c1nsnc1-c1ccccc1 [Compound 376, (S)—N-(4-amino-3,4-dioxo-1-phenylbutan-2-yl)-4-phenyl-1,2,5-thiadiazole-3-carboxamide] | – | – | – | – | – | < 3 µM | < 3 µM | < 10 µM | < 10 µM | < 3 µM
